In article PMC7402526, “An in vitro quantitative systems pharmacology approach for deconvolving mechanisms of drug-induced, multilineage cytopenias” (PLoS Computational Biology, 2020):
Entries after “also recorded” stand apart in the source; their conditions may differ.

Tests used:
[1] = test system: hematopoietic stem cells (HSCs); assay: Multi-lineage toxicity assay (MLTA), HSCs: concentration-response and QSP model fit; format: cell-based, human; conditions: Homo sapiens, Hematopoietic stem cell, 144 h
In short: (§1)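 Six-day flow cytometry counts, bead-normalized and expressed relative to the mean of six vehicle wells, underlie each value. Cells were primary human bone marrow CD34+ cells cultured in SFEM II with cytokines promoting multi-lineage differentiation and self-renewal.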

[2] = test system: multi-potent progenitors (MPPs); assay: MLTA, MPPs: concentration-response and QSP model fit; format: cell-based, human; conditions: Homo sapiens, 144 h
In short: as §1

[3] = test system: granulocyte progenitor (Gran-lin prog); assay: MLTA, GranP: concentration-response and QSP model fit; format: cell-based, human; conditions: Homo sapiens, 144 h
In short: (§2)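 Freeze-thawed primary human bone marrow CD34+ cells were cultured 6 days in SFEM II with a cytokine cocktail, drug added on day 0. Subsets were counted by 17-parameter flow cytometry with TruCount beads and normalized to vehicle wells. An Emax QSP model (Emax 0–2, L1 regularization) was fitted to these counts.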

[4] = test system: neutrophils (neutrophil-lin); assay: MLTA, Neut: concentration-response and QSP model fit; format: cell-based, human; conditions: Homo sapiens, Neutrophil, 144 h
In short: as §1

[5] = test system: early erythroid cells (Eryth I); assay: MLTA, ErythI: concentration-response and QSP model fit; format: cell-based, human; conditions: Homo sapiens, 144 h
In short: as §2

[6] = test system: late erythroid cells (Eryth II); assay: MLTA, ErythII: concentration-response and QSP model fit; format: cell-based, human; conditions: Homo sapiens, 144 h
In short: as §1

MK cells (MK-lin) = assay: MLTA, MK: concentration-response and QSP model fit; format: cell-based, human; conditions: Homo sapiens, 144 h
In short: as §1

[7] = test system: human bone marrow-derived CD34+ cells differentiated into multiple hematopoietic lineages; assay: MLTA, overall effects across hematopoietic lineages; format: cell-based
Procedure: A custom optimized cytokine cocktail was developed using commercially available cytokines (Peprotech, New Jersey) to facilitate simultaneous multi-lineage differentiation and self-renewal of freeze-thawed primary human bone marrow-derived CD34+ cells in SFEM II media (cells and media from StemCell Technologies, Vancouver). Cultures were carried out in ultra-low attachment 96-well plates (Corning, New York) with test article added on day 0 and cultured at 37°C, 85% relative humidity, and 5% CO2 for six days before interrogating drug impact via 17-parameter flow cytometry.
The flow cytometry panel used to define hematopoietic subsets was composed of CD34-PECy7, CD90-PECY5, CD38-AF488, CD371-PE, CD45Ra-BV421, CD14-BV605, CD42b-AF647, CD10-PEDazzle594, CD235a-PerCPCy5.5 (BioLegend, California), CD15-BUV395, CD41a-APCH7, CD71-BV786 (BD Biosciences, California), and DAPI for dead cell exclusion (ThermoFisher, California). In short, Day 6 cells were harvested, FcR-blocked (FcR binding inhibitor, ThermoFisher), surface-stained, then analyzed in a buffer containing TruCount Control Beads using a BD LSR Fortessa SORP fitted with a high-throughput sampler (BD Biosciences, California). Data was analyzed in Diva 6.0.2 and exported to CSV where after all cell data was transformed to cell per mL then normalized on a per-donor basis to untreated control wells to determine drug impact.
Donor material was collected and cultured as described above. The number of replicate donor samples per drug ranged from 2–7 and varied per drug (S1 Table). Drug treatment was added at time 0 and cells were maintained in culture for 6 days. Concentrations tested for each drug compound are contained in S1 Table. Concentrations were selected to span a range that is clinically useful. Following treatment, cell populations were measured using flow cytometry. We extracted cell counts from flow cytometry data, normalized to bead counts, and corrected for well volume.
Each well was normalized to the average of six vehicle control wells. For drugs that were tested across multiple runs of the assay, vehicle-normalized donor data were pooled, and we used the average of these pooled data for further modeling. Normalized data used as model inputs are included in S1 Table.
We implemented drug effects using an Emax model for the drug’s effect on each cell type. The 13 maximum effect parameters (EmaxT,C) are unitless and can vary between 0 and 2 and where a subscript, C, represents one of the previously described 13 cell types. We adapted a traditional Emax model using the equations below. We interpreted EmaxT values less than or equal to one as anti-proliferative, and EmaxT values greater than one as indicating a cell-killing mechanism in addition to anti-proliferation. The relationships for these effects are included in the model using the following equations. Eq 2 describes the drug anti-proliferative effect in the net proliferation rate for a given cell type. Eq 3 describes the cell-killing EmaxCK effect.

## O=C1CCC(N2C(=O)c3ccccc3C2=O)C(=O)N1 (stereo not shown) [thalidomide]
[1]; dose 0.2 nM, 6 days, normalized to vehicle control, read-out: HSCs normalized cell count
  activity at 0.0002 µM: 67.6%
[1]; dose 1 nM, 6 days, normalized to vehicle control, read-out: HSCs normalized cell count
  activity at 0.001 µM: 92.6%
[1]; dose 5 nM, 6 days, normalized to vehicle control, read-out: HSCs normalized cell count
  activity at 0.005 µM: 109%
[1]; dose 25 nM, 6 days, normalized to vehicle control, read-out: HSCs normalized cell count
  activity at 0.025 µM: 96.3%
[1]; dose 100 nM, 6 days, normalized to vehicle control, read-out: HSCs normalized cell count
  activity at 0.1 µM: 84.9%
[1]; dose 500 nM, 6 days, normalized to vehicle control, read-out: HSCs normalized cell count
  activity at 0.5 µM: 99.8%
[1]; dose 2500 nM, 6 days, normalized to vehicle control, read-out: HSCs normalized cell count
  activity at 2.5 µM: 113%
[1]; parameter from QSP model fitting, read-out: Emax_drug_HSC
  Emax: 0.000374%
[2]; dose 0.2 nM, 6 days, normalized to vehicle control, read-out: MPPs normalized cell count
  activity at 0.0002 µM: 91.8%
[2]; dose 1 nM, 6 days, normalized to vehicle control, read-out: MPPs normalized cell count
  activity at 0.001 µM: 75.9%
[2]; dose 5 nM, 6 days, normalized to vehicle control, read-out: MPPs normalized cell count
  activity at 0.005 µM: 79%
[2]; dose 25 nM, 6 days, normalized to vehicle control, read-out: MPPs normalized cell count
  activity at 0.025 µM: 87.5%
[2]; dose 100 nM, 6 days, normalized to vehicle control, read-out: MPPs normalized cell count
  activity at 0.1 µM: 76.7%
[2]; dose 500 nM, 6 days, normalized to vehicle control, read-out: MPPs normalized cell count
  activity at 0.5 µM: 78.1%
[2]; dose 2500 nM, 6 days, normalized to vehicle control, read-out: MPPs normalized cell count
  activity at 2.5 µM: 91.5%
[2]; parameter from QSP model fitting, read-out: Emax_drug_MPP
  Emax: 0.00111%
[3]; dose 0.2 nM, 6 days, normalized to vehicle control, read-out: GranPs normalized cell count
  activity at 0.0002 µM: 80.9%
[3]; dose 1 nM, 6 days, normalized to vehicle control, read-out: GranPs normalized cell count
  activity at 0.001 µM: 97.2%
[3]; dose 5 nM, 6 days, normalized to vehicle control, read-out: GranPs normalized cell count
  activity at 0.005 µM: 114%
[3]; dose 25 nM, 6 days, normalized to vehicle control, read-out: GranPs normalized cell count
  activity at 0.025 µM: 130%
[3]; dose 100 nM, 6 days, normalized to vehicle control, read-out: GranPs normalized cell count
  activity at 0.1 µM: 99%
[3]; dose 500 nM, 6 days, normalized to vehicle control, read-out: GranPs normalized cell count
  activity at 0.5 µM: 94.5%
[3]; dose 2500 nM, 6 days, normalized to vehicle control, read-out: GranPs normalized cell count
  activity at 2.5 µM: 109%
[3]; parameter from QSP model fitting, read-out: Emax_drug_GranP
  Emax: 0.0121%
[4]; dose 0.2 nM, 6 days, normalized to vehicle control, read-out: Neut normalized cell count
  activity at 0.0002 µM: 99.5%
[4]; dose 1 nM, 6 days, normalized to vehicle control, read-out: Neut normalized cell count
  activity at 0.001 µM: 79.1%
[4]; dose 5 nM, 6 days, normalized to vehicle control, read-out: Neut normalized cell count
  activity at 0.005 µM: 88.2%
[4]; dose 25 nM, 6 days, normalized to vehicle control, read-out: Neut normalized cell count
  activity at 0.025 µM: 94.5%
[4]; dose 100 nM, 6 days, normalized to vehicle control, read-out: Neut normalized cell count
  activity at 0.1 µM: 62.4%
[4]; dose 500 nM, 6 days, normalized to vehicle control, read-out: Neut normalized cell count
  activity at 0.5 µM: 69%
[4]; dose 2500 nM, 6 days, normalized to vehicle control, read-out: Neut normalized cell count
  activity at 2.5 µM: 96.9%
[4]; parameter from QSP model fitting, read-out: Emax_drug_Neut
  Emax: 1.13%
[5]; dose 0.2 nM, 6 days, normalized to vehicle control, read-out: ErythI normalized cell count
  activity at 0.0002 µM: 101%
[5]; dose 1 nM, 6 days, normalized to vehicle control, read-out: ErythI normalized cell count
  activity at 0.001 µM: 120%
[5]; dose 5 nM, 6 days, normalized to vehicle control, read-out: ErythI normalized cell count
  activity at 0.005 µM: 124%
[5]; dose 25 nM, 6 days, normalized to vehicle control, read-out: ErythI normalized cell count
  activity at 0.025 µM: 122%
[5]; dose 100 nM, 6 days, normalized to vehicle control, read-out: ErythI normalized cell count
  activity at 0.1 µM: 137%
[5]; dose 500 nM, 6 days, normalized to vehicle control, read-out: ErythI normalized cell count
  activity at 0.5 µM: 114%
[5]; dose 2500 nM, 6 days, normalized to vehicle control, read-out: ErythI normalized cell count
  activity at 2.5 µM: 136%
[5]; parameter from QSP model fitting, read-out: Emax_drug_ErythroidI
  Emax: 0.00343%
[6]; dose 0.2 nM, 6 days, normalized to vehicle control, read-out: ErythII normalized cell count
  activity at 0.0002 µM: 94.3%
[6]; dose 1 nM, 6 days, normalized to vehicle control, read-out: ErythII normalized cell count
  activity at 0.001 µM: 99.8%
[6]; dose 5 nM, 6 days, normalized to vehicle control, read-out: ErythII normalized cell count
  activity at 0.005 µM: 105%
[6]; dose 25 nM, 6 days, normalized to vehicle control, read-out: ErythII normalized cell count
  activity at 0.025 µM: 111%
[6]; dose 100 nM, 6 days, normalized to vehicle control, read-out: ErythII normalized cell count
  activity at 0.1 µM: 77.8%
[6]; dose 500 nM, 6 days, normalized to vehicle control, read-out: ErythII normalized cell count
  activity at 0.5 µM: 87.5%
[6]; dose 2500 nM, 6 days, normalized to vehicle control, read-out: ErythII normalized cell count
  activity at 2.5 µM: 93.7%
[6]; parameter from QSP model fitting, read-out: Emax_drug_ErythroidII
  Emax: 0.00351%
MK cells (MK-lin); dose 0.2 nM, 6 days, normalized to vehicle control, read-out: MK normalized cell count
  activity at 0.0002 µM: 97.8%
MK cells (MK-lin); dose 1 nM, 6 days, normalized to vehicle control, read-out: MK normalized cell count
  activity at 0.001 µM: 103%
MK cells (MK-lin); dose 5 nM, 6 days, normalized to vehicle control, read-out: MK normalized cell count
  activity at 0.005 µM: 118%
MK cells (MK-lin); dose 25 nM, 6 days, normalized to vehicle control, read-out: MK normalized cell count
  activity at 0.025 µM: 114%
MK cells (MK-lin); dose 100 nM, 6 days, normalized to vehicle control, read-out: MK normalized cell count
  activity at 0.1 µM: 101%
MK cells (MK-lin); dose 500 nM, 6 days, normalized to vehicle control, read-out: MK normalized cell count
  activity at 0.5 µM: 88.1%
MK cells (MK-lin); dose 2500 nM, 6 days, normalized to vehicle control, read-out: MK normalized cell count
  activity at 2.5 µM: 105%
MK cells (MK-lin); parameter from QSP model fitting, read-out: Emax_drug_MK
  Emax: 0.00388%
[7]; 0.2-2500 nM, 6 days, relative to vehicle control
  effect on hematopoietic cell numbers across cell types: least effect on hematopoietic cell types across doses; also recorded: did not drastically decrease cell types
[7]; QSP model fit, EmaxT > 1.0 = cell-killing
  EmaxT effects across cell types (overall statement): ≤ 0.1
